Results as given in publication PMC5474678 (Journal of medicinal chemistry, 2015).

Key:
[1] = system: MV4;11 cells; assay: Cell viability assay; assay type: cell-based; conditions: Homo sapiens, MV4-11, 96 h, read-out: IC50 cell growth inhibition MV4
[2] = system: MOLM-13 cells; assay: Cell viability assay; assay type: cell-based; conditions: Homo sapiens, MOLM-13, 96 h, read-out: IC50 cell growth inhibition MOLM-13
[3] = system: K562 cells; assay: Cell viability assay; assay type: cell-based; conditions: Homo sapiens, K562, 96 h, read-out: IC50 cell growth inhibition K562
[4] = target: BRD4 BD1 (Homo sapiens, UniProt O60885); assay: Competitive fluorescence polarization
[5] = target: BRD4 BD2 (Homo sapiens, UniProt O60885); assay: Competitive fluorescence polarization
[6] = target: BRD2 BD1 (Homo sapiens, UniProt P25440); assay: Competitive fluorescence polarization
Sequence of BRD2 BD1 (P25440 72-205): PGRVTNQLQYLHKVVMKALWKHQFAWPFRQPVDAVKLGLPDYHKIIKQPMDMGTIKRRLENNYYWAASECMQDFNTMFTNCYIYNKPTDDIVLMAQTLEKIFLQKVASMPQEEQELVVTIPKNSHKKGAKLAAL

[7] = target: BRD3 BD1 (Homo sapiens, UniProt Q15059); assay: Competitive fluorescence polarization
Sequence of BRD3 BD1 (Q15059 24-144): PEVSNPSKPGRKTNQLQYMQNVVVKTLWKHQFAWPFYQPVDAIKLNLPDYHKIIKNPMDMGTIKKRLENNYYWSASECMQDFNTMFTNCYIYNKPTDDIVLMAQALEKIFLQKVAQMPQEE

[8] = target: BRD3 BD2 (Homo sapiens, UniProt Q15059); assay: Competitive fluorescence polarization
Sequence of BRD3 BD2 (Q15059 306-417): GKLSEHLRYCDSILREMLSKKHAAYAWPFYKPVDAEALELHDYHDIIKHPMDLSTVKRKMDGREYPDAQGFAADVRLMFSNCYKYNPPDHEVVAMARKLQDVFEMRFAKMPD

`COc1cc2c(cc1-c1c(C)noc1C)[nH]c1ccnc(-c3c(-c4ccccc4)n[nH]c3C)c12` [Compound 19, 4-(8-Methoxy-1-(5-methyl-3-phenyl-1H-pyrazol-4-yl)-5H-pyrido[4,3-b]indol-7-yl)-3,5-dimethyl-isoxazole] showed an IC50 [1] of 34 ± 15 nM, an IC50 [2] of 144 ± 31 nM and an IC50 [3] of over 2000 nM. For the same molecule, the IC50 [4] was 80.6 ± 1 nM, the Ki [4] was 26.9 ± 1 nM and the IC50 [5] was 129 ± 45 nM. For the same molecule, the Ki [5] was 38 ± 2.2 nM, the Ki [6] was 12.2 ± 1.7 nM and the Ki [7] was 10.4 ± 1 nM. For the same molecule, the Ki [8] was 9.4 ± 1 nM.
